Laboratory results from ChEMBL document CHEMBL1156506, “Changes to the HIV long terminal repeat and to HIV integrase differentially impact HIV integrase assembly, activity, and the binding of strand transfer inhibitors” (J Biol Chem, 2007).

Tests used:
Conditions in all cases: tested as the 3H-labelled form
[1] = tested on: Human immunodeficiency virus; test: Inhibition of HIV wild type integrase assessed as strand transfer activity using U5 GTdA LTR by scintillation proximity assay relative to wild type LTR; design: scale not given: the % may be the effect or the level left
[2] = tested on: Human immunodeficiency virus type 1 integrase (Human immunodeficiency virus 1), Q7ZJM1 [N155H]; test: Inhibition of HIV recombinant integrase N155H mutant assessed as strand transfer activity using U5 ApTCA LTR by scintillation proximity assay relative to wild type LTR; design: scale not given: the % may be the effect or the level left
[3] = tested on: Human immunodeficiency virus type 1 integrase (Human immunodeficiency virus 1), Q7ZJM1 [N155H]; test: Inhibition of HIV recombinant integrase N155H mutant assessed as specific strand transfer activity using U5 GTCA LTR by scintillation proximity assay relative to wild type LTR; design: scale not given: the % may be the effect or the level left
[4] = tested on: Human immunodeficiency virus; test: Inhibition of HIV wild type integrase assessed as strand transfer activity usingU5 GTCA/CT LTR by scintillation proximity assay relative to wild type LTR; design: scale not given: the % may be the effect or the level left
[5] = tested on: Human immunodeficiency virus; test: Binding affinity to HIV wild type integrase using U5 GdCA LTR relative to wild type LTR
[6] = tested on: Human immunodeficiency virus; test: Binding affinity to U5 GTCT LTR HIV wild type integrase using U5 GTCT LTR relative to wild type LTR
[7] = tested on: Human immunodeficiency virus; test: Binding affinity to HIV wild type integrase using U5 GTTC LTR relative to wild type LTR
[8] = tested on: Human immunodeficiency virus; test: Binding affinity to HIV wild type integrase using U5 GTTA LTR relative to wild type LTR
[9] = tested on: Human immunodeficiency virus; test: Inhibition of HIV wild type integrase assessed as strand transfer activity using U5 ApTCA LTR by scintillation proximity assay relative to wild type LTR; design: scale not given: the % may be the effect or the level left
[10] = tested on: Human immunodeficiency virus; test: Binding affinity to HIV wild type integrase using U5 GTCA/CC LTR relative to wild type LTR
[11] = tested on: Human immunodeficiency virus; test: Binding affinity to HIV wild type integrase using U5 INTCA LTR relative to wild type LTR
[12] = tested on: Human immunodeficiency virus; test: Inhibition of HIV wild type integrase assessed as strand transfer activity using U5 GTCACA LTR by scintillation proximity assay relative to wild type LTR; design: scale not given: the % may be the effect or the level left
[13] = tested on: Human immunodeficiency virus type 1 integrase (Human immunodeficiency virus 1), Q7ZJM1 [Q148R]; test: Inhibition of U5 GdCA LTR HIV recombinant integrase Q148R mutant assessed as specific strand transfer activity using by scintillation proximity assay relative to wild type LTR; design: scale not given: the % may be the effect or the level left
[14] = tested on: Human immunodeficiency virus; test: (§1) Binding affinity to HIV wild type integrase using U5 GTAA LTR relative to wild type LTR
[15] = tested on: Human immunodeficiency virus type 1 integrase (Human immunodeficiency virus 1), Q7ZJM1 [N155H]; test: Inhibition of HIV recombinant integrase N155H mutant assessed as strand transfer activity using U5 GddA LTR by scintillation proximity assay relative to wild type LTR; design: scale not given: the % may be the effect or the level left
[16] = tested on: Human immunodeficiency virus; test: Binding affinity to HIV wild type integrase using U5 GddA LTR relative to wild type LTR
[17] = tested on: Human immunodeficiency virus type 1 integrase (Human immunodeficiency virus 1), Q7ZJM1 [N155H]; test: Inhibition of HIV recombinant integrase N155H mutant assessed as strand transfer activity using U5 GdCA LTR by scintillation proximity assay relative to wild type LTR; design: scale not given: the % may be the effect or the level left
[18] = tested on: Human immunodeficiency virus type 1 integrase (Human immunodeficiency virus 1), Q7ZJM1 [N155H]; test: Inhibition of HIV recombinant integrase N155H mutant assessed as specific strand transfer activity using U5 dTCA LTR by scintillation proximity assay relative to wild type LTR; design: scale not given: the % may be the effect or the level left
[19] = tested on: Human immunodeficiency virus; test: Binding affinity to HIV wild type integrase using U5 GTCA/CT LTR relative to wild type LTR
[20] = tested on: Human immunodeficiency virus; test: Binding affinity to HIV wild type integrase using U5 GTAT LTR relative to wild type LTR
[21] = tested on: Human immunodeficiency virus type 1 integrase (Human immunodeficiency virus 1), Q7ZJM1 [Q148R]; test: Inhibition of HIV recombinant integrase Q148R mutant assessed as strand transfer activity using U5 ApTCA LTR by scintillation proximity assay relative to wild type LTR; design: scale not given: the % may be the effect or the level left
[22] = tested on: Human immunodeficiency virus type 1 integrase (Human immunodeficiency virus 1), Q7ZJM1 [Q148R]; test: Inhibition of U5 GTC LTR HIV recombinant integrase Q148R mutant assessed as specific strand transfer activity using by scintillation proximity assay relative to wild type LTR; design: scale not given: the % may be the effect or the level left
[23] = tested on: Human immunodeficiency virus type 1 integrase (Human immunodeficiency virus 1), Q7ZJM1 [Q148R]; test: Binding affinity to HIV recombinant integrase Q148R mutant using U5 GTdA LTR relative to wild type LTR
[24] = tested on: Human immunodeficiency virus; test: Inhibition of HIV wild type integrase assessed as strand transfer activity U5 GTCA/CC LTR by scintillation proximity assay relative to wild type LTR; design: scale not given: the % may be the effect or the level left
[25] = tested on: Human immunodeficiency virus; test: Binding affinity to HIV wild type integrase using U5 GTCC LTR relative to wild type LTR
[26] = tested on: Human immunodeficiency virus; test: Binding affinity to HIV wild type integrase using U5 GTAC LTR relative to wild type LTR
[27] = tested on: Human immunodeficiency virus; test: Inhibition of HIV wild type integrase assessed as specific strand transfer activity using U5 ApTCA LTR by scintillation proximity assay relative to wild type LTR; design: scale not given: the % may be the effect or the level left
[28] = tested on: Human immunodeficiency virus; test: Inhibition of HIV wild type integrase assessed as specific strand transfer activity using U5 INTCA LTR by scintillation proximity assay relative to wild type LTR; design: scale not given: the % may be the effect or the level left
[29] = tested on: Human immunodeficiency virus; test: Inhibition of HIV wild type integrase assessed as strand transfer activity using U5 GTGA LTR by scintillation proximity assay relative to wild type LTR; design: scale not given: the % may be the effect or the level left
[30] = tested on: Human immunodeficiency virus; test: Inhibition of HIV wild type integrase assessed as strand transfer activity using U5 GTCC LTR by scintillation proximity assay relative to wild type LTR; design: scale not given: the % may be the effect or the level left
[31] = tested on: Human immunodeficiency virus; test: as §1; remark: listed apart in the source
[32] = tested on: Human immunodeficiency virus; test: Inhibition of HIV wild type integrase assessed as strand transfer activity using U5 GTAG LTR by scintillation proximity assay relative to wild type LTR; design: scale not given: the % may be the effect or the level left
[33] = tested on: Human immunodeficiency virus; test: Inhibition of HIV wild type integrase assessed as specific strand transfer activity using U5 GInCA LTR by scintillation proximity assay relative to wild type LTR; design: scale not given: the % may be the effect or the level left
[34] = tested on: Human immunodeficiency virus type 1 integrase (Human immunodeficiency virus 1), Q7ZJM1 [Q148R]; test: Inhibition of U5 ApTCA LTR HIV recombinant integrase Q148R mutant assessed as specific strand transfer activity using by scintillation proximity assay relative to wild type LTR; design: scale not given: the % may be the effect or the level left
[35] = tested on: Human immunodeficiency virus type 1 integrase (Human immunodeficiency virus 1), Q7ZJM1 [N155H]; test: Inhibition of HIV recombinant integrase N155H mutant assessed as specific strand transfer activity using U5 INTCA LTR by scintillation proximity assay relative to wild type LTR; design: scale not given: the % may be the effect or the level left
[36] = tested on: Human immunodeficiency virus type 1 integrase (Human immunodeficiency virus 1), Q7ZJM1 [N155H]; test: Inhibition of HIV recombinant integrase N155H mutant assessed as specific strand transfer activity using U5 GTdA LTR by scintillation proximity assay relative to wild type LTR; design: scale not given: the % may be the effect or the level left
[37] = tested on: Human immunodeficiency virus; test: Inhibition of HIV wild type integrase assessed as strand transfer activity using U5 GTCA LTR by scintillation proximity assay relative to wild type LTR; design: scale not given: the % may be the effect or the level left
[38] = tested on: Human immunodeficiency virus; test: Binding affinity to HIV wild type integrase using U5 GGCA LTR relative to wild type LTR
[39] = tested on: Human immunodeficiency virus type 1 integrase (Human immunodeficiency virus 1), Q7ZJM1 [N155H]; test: Binding affinity to HIV recombinant integrase N155H mutant using U5 ApTCA LTR relative to wild type LTR
[40] = tested on: Human immunodeficiency virus type 1 integrase (Human immunodeficiency virus 1), Q7ZJM1 [N155H]; test: Binding affinity to HIV recombinant integrase N155H mutant using U5 dTCA LTR relative to wild type LTR
[41] = tested on: Human immunodeficiency virus; test: (§2) Inhibition of HIV wild type integrase assessed as strand transfer activity using U5 GTAA LTR by scintillation proximity assay relative to wild type LTR; design: scale not given: the % may be the effect or the level left
[42] = tested on: Human immunodeficiency virus; test: as §2; design: scale not given: the % may be the effect or the level left; remark: listed apart in the source
[43] = tested on: Human immunodeficiency virus type 1 integrase (Human immunodeficiency virus 1), Q7ZJM1 [N155H]; test: Binding affinity to HIV recombinant integrase N155H mutant using U5 GddA LTR relative to wild type LTR
[44] = tested on: Human immunodeficiency virus type 1 integrase (Human immunodeficiency virus 1), Q7ZJM1 [N155H]; test: Binding affinity to HIV recombinant integrase N155H mutant using U5 GTdA LTR relative to wild type LTR
[45] = tested on: Human immunodeficiency virus; test: Binding affinity to HIV wild type integrase using U5 GACA LTR relative to wild type LTR
[46] = tested on: Human immunodeficiency virus type 1 integrase (Human immunodeficiency virus 1), Q7ZJM1 [Q148R]; test: Binding affinity to HIV recombinant integrase Q148R mutant using U5 TTCA LTR relative to wild type LTR

Work on `Cn1c(N2CCCCS2(=O)=O)nc(C(=O)NCc2ccc(F)cc2)c(O)c1=O` [BMS-707035] yielded an Activity [1] of 32%, an Activity [2] of 2% and an Activity [3] of 82%. For the same compound, the Activity [4] was < 25%, the Activity [5] was 40% and the Activity [6] was 75%. It also gave an Activity [7] of 25%, an Activity [8] of 51% and an Activity [9] of 2%. The Activity [10] was 75%, the Activity [11] was 62% and the Activity [12] was 75%. The Activity [13] was 3%, the Activity [14] was 25% and the Activity [15] was 0.6%. The Activity [16] was 35%, the Activity [17] was 33% and the Activity [18] was > 40%. For the same compound, the Activity [19] was < 25%, the Activity [20] was < 25% and the Activity [21] was 0.4%. For the same compound, the Activity [22] was 83%, the Activity [23] was 2% and the Activity [24] was < 25%. The Activity [25] was 75%, the Activity [26] was < 25% and the Activity [27] was 40%. The Activity [28] was 167%, the Activity [29] was 90% and the Activity [30] was 75%. For the same compound, the Activity [31] was 22%, the Activity [32] was < 25% and the Activity [33] was 115%. The Activity [34] was > 8%, the Activity [35] was 135% and the Activity [36] was 35%. The Activity [37] was 75%, the Activity [38] was < 25% and the Activity [39] was 2%. For the same compound, the Activity [40] was 2%, the Activity [41] was 28% and the Activity [42] was < 25%. For the same compound, the Activity [43] was 9%, the Activity [44] was 12% and the Activity [45] was 25%. The Activity [46] was 1%.
